Results from US20230242616A1, “CHEMOKINE-SELECTIVE CXCR4 ECTODOMAIN-DERIVED (POLY)PEPTIDE” (Ludwig-Maximilians-Universität München, priority 2020, published 2023).
Entries after “also recorded” stand apart in the source; their conditions may differ. Where two headings read alike, the source gives them in different places. Where a SMILES comes first, the peptide text is derived from it. [ ]: non-standard residue; d: D form. 12Ado = NCCCCCCCCCCCC(=O)O; Aoc = NCCCCCCCC(=O)O; Ahx = NCCCCCC(=O)O; AEA = NCCOCC(=O)O

Assays:
[1] = tested on: primary mouse spleen B lymphocytes; assay: Transwell chemotaxis of B cells elicited by MIF; assay type: cell-based; conditions: 16 nM MIF
Experimental: Chemotaxis analysis of murine B cells. A Transwell-based assay was used as described previously^34. Briefly, splenic B cells were isolated by negative depletion using a Pan B Cell Isolation Kit (Miltenyi Biotec. Bergisch Gladbach, Germany). Purity of the cells was between 95 and 99%. […] Chemotaxis was followed for 4 h at 37° C. in a humidified atmosphere of 5% CO2. Migrated cells were counted by flow cytometry using CountBright™ Absolute Counting Beads (Molecular Probes-Invitrogen).

[2] = tested on: primary human monocyte-derived macrophages; assay: Dil-LDL uptake / foam cell formation, MIF-mediated; assay type: cell-based
Experimental: Dil-LDL uptake/foam cell formation. […] After washing with imaging solution (MEM without phenol red containing 30 mM HEPES, 0.5 g/L NaHCO3, pH 7.4, and 0.2% BSA), cells were exposed to 50 μg/mL 1,1′-dioctadecyl-3,3,3′3′-tetra-methylindocarbocyanine-labeled LDL (Dil-LDL) for 30 min at 4° C. followed by incubation at 37° C. for 20 min. Cells were washed with ice-cold imaging solution (pH 3.5), fixed, and counter-stained with Hoechst 33258.

[3] = Solubility / biophysical properties of next generation mimics
CXCL12 = target: T1, CXCL12 (Homo sapiens, UniProt P48061); assay: Fluorescence spectroscopic titration, binding to CXCL12
T1 construct: purchased Peprotech (or a gift of Dr. von Hundelshausen, LMU Munich)
T1 sequence (P48061 22-93): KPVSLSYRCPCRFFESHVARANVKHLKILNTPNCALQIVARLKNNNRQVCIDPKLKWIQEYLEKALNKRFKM
Experimental: (§1) Fluorescence spectroscopy. Fluorescence spectroscopic titrations were performed as described^28, 32. Fluorescence spectra were recorded using a JASCO FP-6500 fluorescence spectrophotometer. […] Apparent KD values (app. KD) were calculated assuming a 1/1 binding model^32.

MIF = target: T2, MIF (Homo sapiens, UniProt P14174); assay: Fluorescence spectroscopic titration, binding to MIF
T2 construct: made in house
T2 sequence (P14174 2-115): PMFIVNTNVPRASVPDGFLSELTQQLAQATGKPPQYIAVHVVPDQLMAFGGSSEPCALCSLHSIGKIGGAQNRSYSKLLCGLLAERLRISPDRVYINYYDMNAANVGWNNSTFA
Experimental: as §1

human monocytes = assay: 3D migration of monocytes elicited by MIF (time-lapse microscopy); assay type: cell-based
Excerpt: Isolation of human peripheral blood-derived monocytes. Human peripheral blood-derived monocytes were isolated as described^14. Briefly, blood was collected from healthy donors or buffy coat obtained from the blood bank of Munich University Hospital, mixed 1:1 with PBS, and PBMCs isolated by Ficoll-Paque Plus gradient (GE Healthcare). Monocytes were purified by negative depletion using the Monocyte Isolation Kit II (Miltenyi). Monocyte purity was verified by flow cytometry using an anti-CD14 antibody (Miltenyl) and was 95-98%. […] The isolation of PBMCs from donor blood was approved by the local ethics committee of LMU Munich. 3D migration of human peripheral blood-derived monocytes by time-lapse microscopy. The 3D-migration behavior of human monocytes was assessed by time-lapse microscopy and individual cell tracking using the 3D chemotaxis μ-Slide system from Ibidi GmbH (Munich, Germany), adapting the established Ibidi dendritic cell protocol for human monocytes. […] Cell motility was monitored performing time-lapse imaging every 1 min at 37° C. for 2 h using a Leica inverted DMi8-Life Cell Imaging System equipped with a DMC2900 Digital Microscope Camera with CMOS sensor and live cell-imaging software (Leica Microsystems, Wetzlar, Germany). Images were imported as stacks to ImageJ software and analyzed with the manual tracking and chemotaxis/migration tools (Ibidi GmbH).

[4] = Estimated solubility index by CD spectroscopy; assay type: physicochemical
Experimental: Circular dichroism (CD) spectroscopy. […] Far-UV CD measurements were carried out between 195 and 250 nm. The response time was set at 1 s, intervals at 0.1 nm, and bandwidth at 1 nm. All spectra were measured at RT and represent an average of three recorded spectra. Scans were recorded for the ectodomain mimic peptides at a concentration of 1-20 μM in 10 mM sodium phosphate buffer, pH 7.4, containing 1% HFIP, following dilution of freshly made peptide stock solution in HFIP (4° C.) into the buffer-containing cuvette. […] The background spectrum of buffer/1% HFIP alone was subtracted from the spectra of the peptides.

[5] = tested on: human monocyte-derived macrophages; conditions: read-out: IC50 of MIF-triggered Dil-oxLDL uptake; lower threshold of effect size roughly 50%
[6] = read-out: Alexa-488-MIF/ngm app. Kd (±SD), aqueous 1 × b, pH 7.4, 1% HFIP
[7] = Alexa-488-MIF/ngm app. Kd (±SD), aqueous 1 × b, pH 7.4, 1% HFIP
[8] = Fluos-ngm/MIF app. Kd (±SD), aqueous 1 × b, pH 7.4, 1% HFIP

## CC[C@H](C)[C@H](NC(=O)[C@H](Cc1ccc(O)cc1)NC(=O)[C@H](CCCNC(=N)N)NC(=O)[C@H](CC(=O)O)NC(=O)CCCCCCCCCCCNC(=O)COCCOCCNC(=O)[C@H](CCCCN)NC(=O)[C@H](CS)NC(=O)[C@H](CC(C)C)NC(=O)[C@H](Cc1ccccc1)NC(=O)[C@H](CC(N)=O)NC(=O)CNC(=O)[C@H](Cc1ccccc1)NC(=O)[C@H](Cc1ccc(O)cc1)NC(=O)[C@H](Cc1c[nH]c2ccccc12)NC(=O)[C@H](CC(N)=O)NC(=O)[C@H](C)NC(=O)[C@@H](NC(=O)[C@H](C)NC(=O)[C@@H](N)CC(=O)O)C(C)C)C(=O)N[C@@H](CS)C(=O)N[C@@H](CC(=O)O)C(=O)N[C@@H](CCCNC(=N)N)C(=O)N[C@@H](Cc1ccccc1)C(=O)N[C@@H](Cc1ccc(O)cc1)C(=O)N1CCC[C@H]1C(=O)N[C@@H](CC(N)=O)C(=O)N[C@@H](CC(=O)O)C(=O)N[C@@H](CC(C)C)C(=O)N[C@@H](Cc1c[nH]c2ccccc12)C(=O)N[C@H](C(N)=O)C(C)C [msR4M-L2]
[1]
  inhibition of MIF-mediated B-cell chemotaxis: inhibits MIF-triggered B-lymphocyte chemotaxis; also recorded: fully blocked

## CC(C)C[C@H](NC(=O)[C@H](CC(=O)O)NC(=O)[C@H](CC(N)=O)NC(=O)[C@@H]1CCCN1C(=O)[C@H](Cc1ccc(O)cc1)NC(=O)[C@H](Cc1ccccc1)NC(=O)[C@H](CCCNC(=N)N)NC(=O)[C@H](CC(=O)O)NC(=O)CCCCCCCCCCCNC(=O)CCCCCNC(=O)[C@H](CCCCN)NC(=O)[C@H](CS)NC(=O)[C@H](CC(C)C)NC(=O)[C@H](Cc1ccccc1)NC(=O)[C@H](CC(N)=O)NC(=O)CNC(=O)[C@H](Cc1ccccc1)NC(=O)[C@H](Cc1ccc(O)cc1)NC(=O)[C@@H](N)Cc1c[nH]c2ccccc12)C(=O)N[C@@H](Cc1c[nH]c2ccccc12)C(N)=O [msR4M-L3] (H-WYFGNFLCK[Ahx][12Ado]DRFYPNDLW-NH2)
[2]
  Atherogenic inhibitory activity (Dil-LDL uptake): 80% of % of full-length msR4M-L1
[3]
  solubility properties (in words): less favorable solubility properties
CXCL12
  binding to CXCL12 (in words): essentially no binding affinity for CXCL12
MIF; [6]
  Kd: 11.7 nM
MIF; read-out: Binding affinity (fluorescence spectroscopic titration) Kd, Table 7, reconnected short mimics
  Kd: 14 nM
MIF; read-out: Fluos-ngm/MIF app. Kd (±SD), aqueous 1 × b, pH 7.4, 1% HFIP
  Kd: 44.4 nM

## CC(C)C[C@H](NC(=O)[C@H](CC(=O)O)NC(=O)[C@H](CC(N)=O)NC(=O)[C@@H]1CCCN1C(=O)[C@H](Cc1ccc(O)cc1)NC(=O)[C@H](Cc1ccccc1)NC(=O)[C@H](CCCNC(=N)N)NC(=O)[C@H](CC(=O)O)NC(=O)CCCCCCCNC(=O)[C@H](CCCCN)NC(=O)[C@H](CS)NC(=O)[C@H](CC(C)C)NC(=O)[C@H](Cc1ccccc1)NC(=O)[C@H](CC(N)=O)NC(=O)CNC(=O)[C@H](Cc1ccccc1)NC(=O)[C@H](Cc1ccc(O)cc1)NC(=O)[C@@H](N)Cc1c[nH]c2ccccc12)C(=O)N[C@@H](Cc1c[nH]c2ccccc12)C(N)=O [msR4M-L4] (H-WYFGNFLCK[Aoc]DRFYPNDLW-NH2)
[2]
  Atherogenic inhibitory activity (Dil-LDL uptake): 80% of % of full-length msR4M-L1
[3]
  solubility properties (in words): less favorable solubility properties
CXCL12
  binding to CXCL12 (in words): essentially no binding affinity for CXCL12
MIF; [7]
  Kd: 43.2 nM
MIF; [8]
  Kd: 11.9 nM

## CC(C)C[C@H](NC(=O)[C@H](CC(=O)O)NC(=O)[C@H](CC(N)=O)NC(=O)[C@@H]1CCCN1C(=O)[C@H](Cc1ccc(O)cc1)NC(=O)[C@H](Cc1ccccc1)NC(=O)[C@H](CCCNC(=N)N)NC(=O)[C@H](CC(=O)O)NC(=O)COCCNC(=O)COCCNC(=O)[C@H](CCCCN)NC(=O)[C@H](CS)NC(=O)[C@H](CC(C)C)NC(=O)[C@H](Cc1ccccc1)NC(=O)[C@H](CC(N)=O)NC(=O)CNC(=O)[C@H](Cc1ccccc1)NC(=O)[C@H](Cc1ccc(O)cc1)NC(=O)[C@@H](N)Cc1c[nH]c2ccccc12)C(=O)N[C@@H](Cc1c[nH]c2ccccc12)C(N)=O [msR4M-L5] (H-WYFGNFLCK[AEA][AEA]DRFYPNDLW-NH2)
[2]
  Atherogenic inhibitory activity (Dil-LDL uptake): 30% of % of full-length msR4M-L1
[3]
  solubility properties (in words): favorable biophysical properties such as solubility
Human monocytes
  effect on MIF-triggered 3D monocyte migration: inhibit the MIF-mediated monocytes migration
[4]
  Estimated solubility index by CD spectroscopy: >2× compared to × compared to msR4M-L1
[5]
  IC50: 69.7 nM
CXCL12
  binding to CXCL12 (in words): essentially no binding propensity for CXCL12
MIF; [7]
  Kd: 41.8 nM
MIF; Binding affinity (fluorescence spectroscopic titration) Kd, Table 8, mimics with enhanced solubility
  Kd: 30 to 40 nM
MIF; [8]
  Kd: 14.3 nM

## CC(C)C[C@H](NC(=O)[C@H](CC(=O)O)NC(=O)[C@H](CC(N)=O)NC(=O)[C@@H]1CCCN1C(=O)[C@H](Cc1ccc(O)cc1)NC(=O)[C@H](Cc1ccccc1)NC(=O)[C@H](CCCNC(=N)N)NC(=O)[C@H](CC(=O)O)NC(=O)CNC(=O)CNC(=O)CNC(=O)[C@H](CCCCN)NC(=O)[C@H](CS)NC(=O)[C@H](CC(C)C)NC(=O)[C@H](Cc1ccccc1)NC(=O)[C@H](CC(N)=O)NC(=O)CNC(=O)[C@H](Cc1ccccc1)NC(=O)[C@H](Cc1ccc(O)cc1)NC(=O)[C@@H](N)Cc1c[nH]c2ccccc12)C(=O)N[C@@H](Cc1c[nH]c2ccccc12)C(N)=O [msR4M-LG3]
MIF; [6]
  Kd: > 5000 nM

## H-WYFGNFLCKDDDDRFYPNDLW-NH2 [msR4M-LD3]
[3]
  solubility properties (in words): performing most superior
Human monocytes
  effect on MIF-triggered 3D monocyte migration: inhibit the MIF-mediated monocytes migration
Human monocytes; 3D migration, one experiment, read-out: IC50 of MIF-mediated monocyte migration
  IC50: 18.4 nM
[4]
  Estimated solubility index by CD spectroscopy: >2× compared to × compared to msR4M-L1
[5]
  IC50: 1.4 nM
CXCL12
  binding to CXCL12 (in words): essentially no binding propensity for CXCL12
MIF; [6]
  Kd: 247 nM

## H-WYFGNFLCKKKKDRFYPNDLW-NH2 [msR4M-LK3]
[3]
  solubility properties (in words): very good solubility properties
CXCL12
  binding to CXCL12 (in words): good binding affinity for CXCL12

## H-WYFGNFLCKRRRDRFYPNDLW-NH2 [msR4M-LR3]
[3]
  solubility properties (in words): very good solubility properties
[4]
  Estimated solubility index by CD spectroscopy: >2× compared to × compared to msR4M-L1
CXCL12
  binding to CXCL12 (in words): good binding affinity for CXCL12
